Results taken from patent US11286228B2, “Stilbene derivative and method for preparing same” (Ozchela Inc., priority 2016, dated 2022).

What follows are compounds tested against cyclophilin (assay: Cis-trans isomerase inhibitory activity (chymotrypsin-coupled Suc-AAPF-pNA cleavage, absorbance 390 nm)). Conditions: cyclophilin, chymotrypsin, Suc-AAPF-pNA; read-out: Test Example 1: cis-trans isomerase inhibitory activity (IC50).
Assay type: biochemical
Description: Chymotrypsin cleaves a trans-type alanine-proline peptide bond. When Suc-AAPF-pNA (a peptide substrate) and chymotrypsin are mixed, the trans-type peptide substrate is cleaved and the cis-type peptide substrate remains. The remaining cis-type peptide substrate is converted into a trans form by a cis-trans isomerase and is then cleaved again by chymotrypsin. When the cis-trans isomerase is present, chymotrypsin is able to cleave a larger amount of trans-type peptide substrate within a predetermined period of time, from which the activity of the cis-trans isomerase may be determined. The amount of the cleaved trans-type peptide substrate is measured using absorbance at 390 nm. Cyclophilin has cis-trans isomerase activity, and accelerates the cleavage of trans-type peptide substrate by chymotrypsin. When the stilbene derivatives of the present invention were treated together with cyclophilin, the cleavage of the peptide substrate by chymotrypsin was not observed to accelerate. Thereby, the stilbene derivatives of the invention can be concluded to inhibit the activity of cyclophilin.
`CCCCOC(=O)c1ccccc1C=C(F)c1ccc(CC(C)(C)C)cc1` [Compound 112] showed an IC50 of no more than 0.02 µM. `CN(C)c1ccccc1C=C(C#N)c1ccc([N+](=O)[O-])cc1` [Compound 7] was tested, and the IC50 was 0.2 to 2 µM. With `N#CC(=Cc1ccccc1N1CCOCC1)c1ccc([N+](=O)[O-])cc1` [Compound 30] the IC50 was 0.2 to 2 µM. In the case of `CCCCOC(=O)c1ccccc1C=C(C)c1ccc(CC(C)CC)cc1` (stereo not drawn) [Compound 94], the IC50 is reported as 0.02 to 0.2 µM. In the case of `CCCCOC(=O)c1ccccc1C=Cc1ccc(CC(C)(C)C)cc1CC` [Compound 68], the IC50 is reported as 0.02 to 0.2 µM. `CC(c1ccc(C(C#N)=Cc2ccccc2C(=O)O)cc1)C(C)(C)C` (stereo not drawn) [Compound 56] was tested, and the IC50 was 0.02 to 0.2 µM. `CCCCOC(=O)c1cc2ccccc2cc1C=Cc1ccc(CC(C)(C)C)cc1` [Compound 142] showed an IC50 of 0.02 to 0.2 µM. `N#CC(=Cc1ccccc1CCCc1ccccc1)c1ccc([N+](=O)[O-])cc1` [Compound 42] was tested, and the IC50 was 0.2 to 2 µM. `Cc1ccc(C(C#N)=Cc2ccccc2C(=O)O)cc1C` [Compound 13] showed an IC50 of 0.2 to 2 µM. `N#CC(=Cc1ccccc1C(=O)O)c1ccc(CC2CCCCC2)cc1` [Compound 59] showed an IC50 of no more than 0.02 µM. `CCCCc1ccc(C(C#N)=Cc2ccccc2C(=O)O)cc1` [Compound 8] was tested, and the IC50 was 0.02 to 0.2 µM. `CCC(C)Cc1ccc(C=Cc2ccccc2C(=O)OC)cc1` (stereo not drawn) [Compound 125] showed an IC50 of 0.02 to 0.2 µM. Compound `CC(C)(C)Cc1ccc(C=Cc2ccccc2C(=O)O)cc1` [Compound 134] has an IC50 of no more than 0.02 µM. For `CCCCCOC(=O)c1ccccc1C=C(Cl)c1ccc(CC(C)(C)C)cc1` [Compound 117], the IC50 was no more than 0.02 µM. Compound `N#CC(=Cc1ccccc1CCCC1CCCCC1)c1ccc([N+](=O)[O-])cc1` [Compound 40] has an IC50 of no more than 0.02 µM. For `CC(C)Cc1ccccc1C=C(C#N)c1ccc([N+](=O)[O-])cc1` [Compound 34], the IC50 was 0.2 to 2 µM. With `COC(=O)c1ccccc1C=Cc1ccc(CC2CCCCC2)cc1` [Compound 127] the IC50 was 0.02 to 0.2 µM. Compound `CCCCCOC(=O)c1ccccc1C=Cc1ccc(CC(C)(C)C)cc1` [Compound 72] has an IC50 of no more than 0.02 µM. Compound `CCCCOC(=O)c1ccccc1C=Cc1ccc(CC(C)(C)C)nc1` [Compound 144] has an IC50 of 0.02 to 0.2 µM. `CCCCOC(=O)c1cc(C)ccc1C=C(I)c1ccc(CC(C)(C)C)cc1` [Compound 115] gave an IC50 of no more than 0.02 µM. `CCC(C)c1ccc(C(C#N)=Cc2ccccc2C(=O)O)cc1` (stereo not drawn) [Compound 9] gave an IC50 of 0.02 to 0.2 µM. With `N#CC(=Cc1ccccc1C1CCCCC1)c1ccc([N+](=O)[O-])cc1` [Compound 31] the IC50 was 0.02 to 0.2 µM. Compound `CCCCOC(=O)c1ccccc1C=C(N)c1ccc(CC(C)CC)cc1` (stereo not drawn) [Compound 108] has an IC50 of 0.02 to 0.2 µM. `CCCCOC(=O)c1ncccc1C=Cc1ccc(CC(C)(C)C)cc1` [Compound 145] showed an IC50 of 0.02 to 0.2 µM.

What follows are compounds tested on mitochondria obtained from hepatocytes (assay: Inhibitory activity on calcium-induced mitochondrial swelling (absorbance 520 nm)). Conditions: Hepatocyte, read-out: Test Example 4: inhibiting mitochondrial swelling (IC50).
Description: Cyclophilin is a key protein for forming permeability transition pores (PTP) in mitochondria. When permeability transition pores are formed, mitochondria swell, whereby the outer membrane thereof ruptures and thus cell death progresses. Such mitochondrial dysfunction causes many diseases including neurodegenerative diseases, cancer, and the like. Cyclosporine, a known cyclophilin inhibitor, is capable of preventing the formation of permeability transition pores to thus suppress mitochondrial swelling.
The mitochondrial swelling test was performed as follows. Specifically, the hepatocytes were disrupted using a Dounce tissue grinder. The disrupted cells were centrifuged at 700×g for 10 min and the supernatant was transferred into a new tube. The supernatant was centrifuged at 12,000×g for 15 min, thereby obtaining mitochondria.
When the extracted mitochondria were added with calcium, they swelled, which may be observed by measuring the absorbance at 520 nm. The stilbene derivatives are effective at inhibiting mitochondrial swelling due to calcium.
The activity of Compounds 1 to 155 of Tables 1 to 10 on inhibiting mitochondrial swelling may be determined based on IC50 values, and may be grouped as follows: […]
Compound `N#CC(=Cc1ccccc1C1CCCCC1)c1ccc([N+](=O)[O-])cc1` [Compound 31] has an IC50 of 5 to 50 µM.

Same assay, conditions: Hepatocyte; calcium-induced swelling of extracted mitochondria; read-out: Test Example 4: inhibiting mitochondrial swelling (IC50)
Work on `CCCCOC(=O)c1ccccc1C=C(F)c1ccc(CC(C)(C)C)cc1` [Compound 112] yielded an IC50 of less than 5 µM. In the case of `CN(C)c1ccccc1C=C(C#N)c1ccc([N+](=O)[O-])cc1` [Compound 7], the IC50 is reported as 50 to 500 µM. With `N#CC(=Cc1ccccc1N1CCOCC1)c1ccc([N+](=O)[O-])cc1` [Compound 30] the IC50 was 50 to 500 µM. `CCCCOC(=O)c1ccccc1C=C(C)c1ccc(CC(C)CC)cc1` (stereo not drawn) [Compound 94] gave an IC50 of 5 to 50 µM. `CCCCOC(=O)c1ccccc1C=Cc1ccc(CC(C)(C)C)cc1CC` [Compound 68] was tested, and the IC50 was 5 to 50 µM. Compound `CC(c1ccc(C(C#N)=Cc2ccccc2C(=O)O)cc1)C(C)(C)C` (stereo not drawn) [Compound 56] has an IC50 of 5 to 50 µM. `CCCCOC(=O)c1cc2ccccc2cc1C=Cc1ccc(CC(C)(C)C)cc1` [Compound 142] gave an IC50 of 5 to 50 µM. In the case of `N#CC(=Cc1ccccc1CCCc1ccccc1)c1ccc([N+](=O)[O-])cc1` [Compound 42], the IC50 is reported as 50 to 500 µM. `N#CC(=Cc1ccccc1C(=O)O)c1ccc(CC2CCCCC2)cc1` [Compound 59] showed an IC50 of less than 5 µM. Compound `CCC(C)Cc1ccc(C=Cc2ccccc2C(=O)OC)cc1` (stereo not drawn) [Compound 125] has an IC50 of 5 to 50 µM. `CC(C)(C)Cc1ccc(C=Cc2ccccc2C(=O)O)cc1` [Compound 134] was tested, and the IC50 was less than 5 µM. `CCCCCOC(=O)c1ccccc1C=C(Cl)c1ccc(CC(C)(C)C)cc1` [Compound 117] showed an IC50 of less than 5 µM. `N#CC(=Cc1ccccc1CCCC1CCCCC1)c1ccc([N+](=O)[O-])cc1` [Compound 40] showed an IC50 of less than 5 µM. `CC(C)Cc1ccccc1C=C(C#N)c1ccc([N+](=O)[O-])cc1` [Compound 34] gave an IC50 of 50 to 500 µM. Work on `COC(=O)c1ccccc1C=Cc1ccc(CC2CCCCC2)cc1` [Compound 127] yielded an IC50 of 5 to 50 µM. In the case of `CCCCOC(=O)c1ccccc1C=Cc1ccc(CC(C)(C)C)nc1` [Compound 144], the IC50 is reported as 5 to 50 µM. In the case of `CCCCOC(=O)c1cc(C)ccc1C=C(I)c1ccc(CC(C)(C)C)cc1` [Compound 115], the IC50 is reported as less than 5 µM. With `CCCCOC(=O)c1ccccc1C=C(N)c1ccc(CC(C)CC)cc1` (stereo not drawn) [Compound 108] the IC50 was 5 to 50 µM. In the case of `CCCCOC(=O)c1ncccc1C=Cc1ccc(CC(C)(C)C)cc1` [Compound 145], the IC50 is reported as 5 to 50 µM.

Same assay, conditions: calcium-induced swelling of extracted mitochondria; read-out: Test Example 4: inhibiting mitochondrial swelling (IC50)
Compound `Cc1ccc(C(C#N)=Cc2ccccc2C(=O)O)cc1C` [Compound 13] has an IC50 of 50 to 500 µM. Work on `CCCCc1ccc(C(C#N)=Cc2ccccc2C(=O)O)cc1` [Compound 8] yielded an IC50 of 5 to 50 µM. Compound `CCCCCOC(=O)c1ccccc1C=Cc1ccc(CC(C)(C)C)cc1` [Compound 72] has an IC50 of less than 5 µM. `CCC(C)c1ccc(C(C#N)=Cc2ccccc2C(=O)O)cc1` (stereo not drawn) [Compound 9] gave an IC50 of 5 to 50 µM.

These compounds were tested on hepatitis C virus (assay: Antiviral activity in HCV replicon cells (Renilla luciferase)). Conditions: HCV replicon cells, 72 hr, Renilla luciferase, relative to DMSO; read-out: Test Example 3: antiviral activity (EC50).
Assay type: cell-based
Description: The antiviral activity of the stilbene derivatives on hepatitis C virus was measured. The replicon cells that stably replicate the hepatitis C virus genome were attached to a culture plate and cultured in a CO2 incubator at 37° C. for 24 hr. The replicon cells cultured for one day were washed with a PBS solution, treated with the compounds of the present invention, and then cultured for 72 hr. The stilbene derivative-treated replicon cells were washed with a cold PBS solution and added with 20 μL of a cell lysis solution so that the cells were lysed in ice for 20 min. 100 μL of a Renilla luciferase substrate was added thereto, after which the luminescence thereof was measured and thus the amount of the hepatitis C virus genome was estimated. The amount of the hepatitis C virus genome in the stilbene derivative-treated replicon cells according to the present invention relative to the amount of the hepatitis C virus genome in dimethylsulfoxide (DMSO)-treated replicon cells is shown.
Compounds 1 to 155 of Tables 1 to 10 may be grouped as follows based on the antiviral activity (EC50) values: […]
`Cc1ccc(C(C#N)=Cc2ccccc2C(=O)O)cc1C` [Compound 13] gave an EC50 of 5 to 50 µM. `CCCCc1ccc(C(C#N)=Cc2ccccc2C(=O)O)cc1` [Compound 8] gave an EC50 of 0.5 to 5 µM. `CCCCCOC(=O)c1ccccc1C=Cc1ccc(CC(C)(C)C)cc1` [Compound 72] gave an EC50 of less than 0.5 µM. For `CCC(C)c1ccc(C(C#N)=Cc2ccccc2C(=O)O)cc1` (stereo not drawn) [Compound 9], the EC50 was 0.5 to 5 µM.

Same assay, conditions: Hepatitis C virus, 72 h, read-out: Test Example 3: antiviral activity (EC50)
For `N#CC(=Cc1ccccc1C1CCCCC1)c1ccc([N+](=O)[O-])cc1` [Compound 31], the EC50 was 0.5 to 5 µM.

Same assay, conditions: Hepatitis C virus; HCV replicon cells, 72 hr, Renilla luciferase, relative to DMSO; read-out: Test Example 3: antiviral activity (EC50)
For `CCCCOC(=O)c1ccccc1C=C(F)c1ccc(CC(C)(C)C)cc1` [Compound 112], the EC50 was less than 0.5 µM. Work on `CN(C)c1ccccc1C=C(C#N)c1ccc([N+](=O)[O-])cc1` [Compound 7] yielded an EC50 of 5 to 50 µM. Work on `N#CC(=Cc1ccccc1N1CCOCC1)c1ccc([N+](=O)[O-])cc1` [Compound 30] yielded an EC50 of 5 to 50 µM. `CCCCOC(=O)c1ccccc1C=C(C)c1ccc(CC(C)CC)cc1` (stereo not drawn) [Compound 94] showed an EC50 of 0.5 to 5 µM. With `CCCCOC(=O)c1ccccc1C=Cc1ccc(CC(C)(C)C)cc1CC` [Compound 68] the EC50 was 0.5 to 5 µM. Compound `CC(c1ccc(C(C#N)=Cc2ccccc2C(=O)O)cc1)C(C)(C)C` (stereo not drawn) [Compound 56] has an EC50 of 0.5 to 5 µM. Work on `CCCCOC(=O)c1cc2ccccc2cc1C=Cc1ccc(CC(C)(C)C)cc1` [Compound 142] yielded an EC50 of 0.5 to 5 µM. With `N#CC(=Cc1ccccc1CCCc1ccccc1)c1ccc([N+](=O)[O-])cc1` [Compound 42] the EC50 was 5 to 50 µM. In the case of `N#CC(=Cc1ccccc1C(=O)O)c1ccc(CC2CCCCC2)cc1` [Compound 59], the EC50 is reported as less than 0.5 µM. Work on `CCC(C)Cc1ccc(C=Cc2ccccc2C(=O)OC)cc1` (stereo not drawn) [Compound 125] yielded an EC50 of 0.5 to 5 µM. `CC(C)(C)Cc1ccc(C=Cc2ccccc2C(=O)O)cc1` [Compound 134] gave an EC50 of less than 0.5 µM. With `CCCCCOC(=O)c1ccccc1C=C(Cl)c1ccc(CC(C)(C)C)cc1` [Compound 117] the EC50 was less than 0.5 µM. In the case of `N#CC(=Cc1ccccc1CCCC1CCCCC1)c1ccc([N+](=O)[O-])cc1` [Compound 40], the EC50 is reported as less than 0.5 µM. In the case of `CC(C)Cc1ccccc1C=C(C#N)c1ccc([N+](=O)[O-])cc1` [Compound 34], the EC50 is reported as 5 to 50 µM. For `COC(=O)c1ccccc1C=Cc1ccc(CC2CCCCC2)cc1` [Compound 127], the EC50 was 0.5 to 5 µM. With `CCCCOC(=O)c1ccccc1C=Cc1ccc(CC(C)(C)C)nc1` [Compound 144] the EC50 was 0.5 to 5 µM. For `CCCCOC(=O)c1cc(C)ccc1C=C(I)c1ccc(CC(C)(C)C)cc1` [Compound 115], the EC50 was less than 0.5 µM. `CCCCOC(=O)c1ccccc1C=C(N)c1ccc(CC(C)CC)cc1` (stereo not drawn) [Compound 108] showed an EC50 of 0.5 to 5 µM. Work on `CCCCOC(=O)c1ncccc1C=Cc1ccc(CC(C)(C)C)cc1` [Compound 145] yielded an EC50 of 0.5 to 5 µM.
